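In this assay, cells in 96-well plates receive the compound at five concentrations for 48 hours. Endpoints are linearly interpolated between the surrounding concentrations. Definition used: TGI = concentration required for complete inhibition of growth.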
Key:
Assay in all cases: inhibition of tumour cell growth, NCI panel, 48 h
[1] = system: HCC-2998 colon
[2] = system: UO-31 renal
[3] = system: UACC-257 melanoma
[4] = system: SF-268 CNS
[5] = system: TK-10 renal
[6] = system: HT29 colon
[7] = system: A498 renal
[8] = system: SK-MEL-5 melanoma
[9] = system: SK-MEL-28 melanoma
[10] = system: OVCAR-8 ovarian
[11] = system: SK-MEL-2 melanoma
[12] = system: SN12C renal
[13] = system: KM12 colon
[14] = system: COLO 205 colon
[15] = system: UACC-62 melanoma
[16] = system: SNB-19 CNS
[17] = system: MALME-3M melanoma
[18] = system: RPMI-8226 leukemia
[19] = system: NCI-H460 lung
[20] = system: MDA-MB-231 breast
[21] = system: SNB-75 CNS
[22] = system: SK-OV-3 ovarian
[23] = system: CAKI-1 renal
[24] = system: HOP-92 NSCLC
[25] = system: PC-3 prostate
[26] = system: SF-295 CNS
[27] = system: EKVX NSCLC
[28] = system: MOLT-4 leukemia
[29] = system: HCT-15 colon
[30] = system: RXF 393 renal
[31] = system: U251 CNS
[32] = system: T-47D breast
[33] = system: M14 melanoma
[34] = system: ACHN renal
[35] = system: MCF7 breast
[36] = system: OVCAR-5 ovarian
[37] = system: MDA-N
[38] = system: DU-145 prostate
[39] = system: HOP-62 NSCLC
[40] = system: NCI-H522 lung
[41] = system: K-562 leukemia
[42] = system: IGROV1 ovarian
[43] = system: HS 578T breast
[44] = system: OVCAR-4 ovarian
[45] = system: BT-549 breast
[46] = system: 786-0 renal
[47] = system: NCI-H23 lung
[48] = system: LOX IMVI melanoma
[49] = system: HL-60(TB) leukemia
[50] = system: SF-539 CNS
[51] = system: OVCAR-3 ovarian
[52] = system: A549 NSCLC
[53] = system: SR leukemia
[54] = system: CCRF-CEM leukemia
[55] = system: HCT-116 colon
[56] = system: MDA-MB-435
[57] = system: NCI/ADR-RES ovarian
[58] = system: SW-620 colon
[59] = system: NCI-H226 lung

Q: `CC1=C(Cc2ccccc2)C(Cc2ccccc2)=C(C)S1=O` was tested. Which TGI [1] did it give?
A: 42.4 µM

Q: What about the TGI [2] of the same compound?
A: > 100 µM

Q: What about the TGI [3] of the same compound?
A: 48.5 µM

Q: What about the TGI [4] of the same compound?
A: > 100 µM

Q: What about the TGI [5] of the same compound?
A: 76.2 µM

Q: What about the TGI [6] of the same compound?
A: 39.4 µM

Q: And the TGI [7]?
A: 63.7 µM

Q: And the TGI [8]?
A: 30.1 µM

Q: What about the TGI [9] of the same compound?
A: > 100 µM

Q: And the TGI [10]?
A: > 100 µM

Q: What about the TGI [11] of the same compound?
A: 35.1 µM

Q: And the TGI [12]?
A: 84.1 µM

Q: What about the TGI [13] of the same compound?
A: 36.5 µM

Q: And the TGI [14]?
A: 43.1 µM

Q: What about the TGI [15] of the same compound?
A: 34.3 µM

Q: And the TGI [16]?
A: > 100 µM

Q: And the TGI [17]?
A: > 100 µM

Q: And the TGI [18]?
A: 54.4 µM

Q: And the TGI [19]?
A: 99.1 µM

Q: What about the TGI [20] of the same compound?
A: 52.3 µM

Q: What about the TGI [21] of the same compound?
A: 54.6 µM

Q: What about the TGI [22] of the same compound?
A: > 100 µM

Q: What about the TGI [23] of the same compound?
A: > 100 µM

Q: What about the TGI [24] of the same compound?
A: > 100 µM

Q: And the TGI [25]?
A: 54.1 µM

Q: What about the TGI [26] of the same compound?
A: > 100 µM

Q: And the TGI [27]?
A: 46.9 µM

Q: And the TGI [28]?
A: 41.5 µM

Q: What about the TGI [29] of the same compound?
A: > 100 µM

Q: What about the TGI [30] of the same compound?
A: 55.1 µM

Q: And the TGI [31]?
A: > 100 µM

Q: And the TGI [32]?
A: 59.1 µM

Q: What about the TGI [33] of the same compound?
A: 46.3 µM

Q: And the TGI [34]?
A: > 100 µM

Q: What about the TGI [35] of the same compound?
A: 60 µM

Q: What about the TGI [36] of the same compound?
A: 73.2 µM

Q: What about the TGI [37] of the same compound?
A: 71.2 µM

Q: What about the TGI [38] of the same compound?
A: > 100 µM

Q: What about the TGI [39] of the same compound?
A: > 100 µM

Q: What about the TGI [40] of the same compound?
A: 78.8 µM

Q: And the TGI [41]?
A: > 100 µM

Q: What about the TGI [42] of the same compound?
A: > 100 µM

Q: And the TGI [43]?
A: > 100 µM

Q: And the TGI [44]?
A: > 100 µM

Q: What about the TGI [45] of the same compound?
A: 92.4 µM

Q: What about the TGI [46] of the same compound?
A: 71 µM

Q: What about the TGI [47] of the same compound?
A: 95.7 µM

Q: And the TGI [48]?
A: 50.9 µM

Q: And the TGI [49]?
A: 34.6 µM

Q: And the TGI [50]?
A: > 100 µM

Q: And the TGI [51]?
A: > 100 µM

Q: And the TGI [52]?
A: > 100 µM

Q: What about the TGI [53] of the same compound?
A: 53.2 µM

Q: What about the TGI [54] of the same compound?
A: 49.9 µM

Q: What about the TGI [55] of the same compound?
A: 74.7 µM

Q: What about the TGI [56] of the same compound?
A: 35.6 µM

Q: What about the TGI [57] of the same compound?
A: 51.7 µM

Q: What about the TGI [58] of the same compound?
A: > 100 µM

Q: `C=C(C)c1nc(C#N)c(N)o1` was tested. Which TGI [1] did it give?
A: > 100 µM

Q: And the TGI [2]?
A: > 100 µM

Q: What about the TGI [3] of the same compound?
A: > 100 µM

Q: And the TGI [4]?
A: > 100 µM

Q: What about the TGI [5] of the same compound?
A: > 100 µM

Q: What about the TGI [6] of the same compound?
A: > 100 µM

Q: What about the TGI [8] of the same compound?
A: > 100 µM

Q: What about the TGI [9] of the same compound?
A: > 100 µM

Q: And the TGI [10]?
A: > 100 µM

Q: And the TGI [11]?
A: > 100 µM

Q: What about the TGI [12] of the same compound?
A: > 100 µM

Q: What about the TGI [13] of the same compound?
A: > 100 µM

Q: What about the TGI [14] of the same compound?
A: > 100 µM

Q: What about the TGI [16] of the same compound?
A: > 100 µM

Q: What about the TGI [17] of the same compound?
A: > 100 µM

Q: What about the TGI [18] of the same compound?
A: > 100 µM

Q: And the TGI [19]?
A: > 100 µM

Q: And the TGI [20]?
A: > 100 µM

Q: And the TGI [22]?
A: > 100 µM

Q: And the TGI [23]?
A: > 100 µM

Q: What about the TGI [59] of the same compound?
A: > 100 µM

Q: And the TGI [25]?
A: > 100 µM

Q: What about the TGI [26] of the same compound?
A: > 100 µM

Q: What about the TGI [27] of the same compound?
A: > 100 µM

Q: What about the TGI [28] of the same compound?
A: > 100 µM

Q: And the TGI [29]?
A: > 100 µM

Q: What about the TGI [30] of the same compound?
A: > 100 µM

Q: What about the TGI [31] of the same compound?
A: > 100 µM

Q: What about the TGI [32] of the same compound?
A: > 100 µM

Q: And the TGI [33]?
A: > 100 µM

Q: And the TGI [34]?
A: > 100 µM

Q: What about the TGI [35] of the same compound?
A: > 100 µM

Q: What about the TGI [36] of the same compound?
A: > 100 µM

Q: And the TGI [37]?
A: > 100 µM

Q: What about the TGI [38] of the same compound?
A: > 100 µM

Q: What about the TGI [39] of the same compound?
A: > 100 µM

Q: And the TGI [41]?
A: > 100 µM

Q: What about the TGI [42] of the same compound?
A: > 100 µM

Q: What about the TGI [43] of the same compound?
A: > 100 µM

Q: What about the TGI [44] of the same compound?
A: > 100 µM

Q: And the TGI [45]?
A: > 100 µM

Q: And the TGI [46]?
A: > 100 µM

Q: What about the TGI [47] of the same compound?
A: > 100 µM

Q: And the TGI [48]?
A: > 100 µM

Q: And the TGI [50]?
A: > 100 µM

Q: What about the TGI [51] of the same compound?
A: > 100 µM

Q: And the TGI [52]?
A: > 100 µM

Q: And the TGI [53]?
A: > 100 µM

Q: And the TGI [54]?
A: > 100 µM

Q: What about the TGI [55] of the same compound?
A: > 100 µM

Q: And the TGI [56]?
A: > 100 µM

Q: And the TGI [57]?
A: > 100 µM

Q: And the TGI [58]?
A: > 100 µM

Q: `COc1ccc2cc1Oc1ccc(cc1)CC1c3cc(OC)c(cc3CCN1C)Oc1c(OC)c(OC)cc3c1C(C2)N(C)CC3` (stereo unspecified) was tested. Which TGI [1] did it give?
A: 19.1 µM

Q: What about the TGI [2] of the same compound?
A: 18.8 µM

Q: And the TGI [3]?
A: 16.1 µM

Q: What about the TGI [4] of the same compound?
A: 33.6 µM

Q: And the TGI [5]?
A: 20.6 µM

Q: And the TGI [6]?
A: 18 µM

Q: What about the TGI [7] of the same compound?
A: 23.9 µM

Q: What about the TGI [8] of the same compound?
A: 15.9 µM

Q: What about the TGI [9] of the same compound?
A: 34.9 µM

Q: And the TGI [10]?
A: 23.2 µM

Q: What about the TGI [11] of the same compound?
A: 25.6 µM

Q: And the TGI [12]?
A: 18.3 µM

Q: And the TGI [13]?
A: 26 µM

Q: What about the TGI [14] of the same compound?
A: 11.8 µM

Q: What about the TGI [15] of the same compound?
A: 23.3 µM

Q: And the TGI [16]?
A: 27.1 µM

Q: And the TGI [17]?
A: 23.1 µM

Q: What about the TGI [19] of the same compound?
A: 19.8 µM

Q: And the TGI [20]?
A: 21.5 µM

Q: What about the TGI [21] of the same compound?
A: 18.2 µM

Q: What about the TGI [22] of the same compound?
A: > 75 µM

Q: What about the TGI [23] of the same compound?
A: 29.4 µM

Q: And the TGI [24]?
A: 34.1 µM

Q: What about the TGI [59] of the same compound?
A: 51.7 µM

Q: What about the TGI [25] of the same compound?
A: 40.7 µM

Q: And the TGI [26]?
A: 21.1 µM

Q: What about the TGI [27] of the same compound?
A: 31.7 µM

Q: And the TGI [28]?
A: 32.4 µM

Q: What about the TGI [29] of the same compound?
A: 18.3 µM

Q: And the TGI [31]?
A: 24.6 µM

Q: What about the TGI [32] of the same compound?
A: 20.5 µM

Q: What about the TGI [33] of the same compound?
A: 15 µM

Q: What about the TGI [34] of the same compound?
A: 19 µM

Q: And the TGI [35]?
A: 36.7 µM

Q: And the TGI [36]?
A: > 75 µM

Q: And the TGI [37]?
A: 20.3 µM

Q: What about the TGI [38] of the same compound?
A: 27.9 µM

Q: And the TGI [40]?
A: 20.6 µM

Q: And the TGI [41]?
A: 28.7 µM

Q: What about the TGI [42] of the same compound?
A: 64.2 µM

Q: And the TGI [43]?
A: 25.6 µM

Q: And the TGI [44]?
A: 24.4 µM

Q: What about the TGI [45] of the same compound?
A: 20.9 µM

Q: And the TGI [46]?
A: 30.4 µM

Q: And the TGI [47]?
A: 35.6 µM

Q: And the TGI [48]?
A: 28 µM

Q: What about the TGI [49] of the same compound?
A: 16.3 µM

Q: And the TGI [50]?
A: 19.5 µM

Q: What about the TGI [52] of the same compound?
A: 53.4 µM

Q: And the TGI [53]?
A: 4.33 µM

Q: And the TGI [54]?
A: 42.4 µM

Q: What about the TGI [55] of the same compound?
A: > 75 µM

Q: And the TGI [56]?
A: 26.2 µM

Q: What about the TGI [57] of the same compound?
A: 29.9 µM

Q: And the TGI [58]?
A: > 75 µM

Source: PubChem BioAssay (NCI)
